Data taken from paper PMC9715946, “Bioenhancing effects of piperine and curcumin on triterpenoid pharmacokinetics and neurodegenerative metabolomes from Centella asiatica extract in beagle dogs” (Scientific Reports, 2022).

Experiments:
[1] = Pharmacokinetic study: plasma triterpenoids by LCMS, non-compartmental analysis; set-up: species or system beagle dogs; conditions: dog, in vivo; for Tmax: 20 mg/kg
Excerpt: The proposed animal experiment was approved by the Institutional Animal Care and Use Committee of the Chulalongkorn University Laboratory Animal Centre (CULAC), Chulalongkorn University, Bangkok, Thailand (Protocol number 2073029, Approval date: […] The dogs were fed with a normal dog diet (Beauty Pro, Nippon Pet Food Co. Ltd.) once a day and water ad libitum. Two groups of four dogs were randomly used with a 2-week washout period. […] After receiving the test substances, the dogs were transferred to a metabolic cage for 48 h for the collection of urine and faeces. All animal procedures were performed in accordance with the ethical principles, regulations, and guidelines for the use of animals (National Research Council of Thailand, 2015). This study was conducted in compliance with the ARRIVE guidelines. Four experimental groups received the oral test compound once daily for seven consecutive days, as follows: ([…] 20 […] 20 mg/kg + piperine 20 mg/kg; ([…] 20 mg/kg + curcumin 20 mg/kg; and (iv) […] 20 mg/kg + piperine 20 mg/kg + curcumin 20 mg/kg. The test substance powders received from the suppliers were packed into gelatine capsule, and the dogs were orally administered two to four capsules in the morning, according to the number of test substances required in the experimental plan. Blood samples (2-3 mL) were withdrawn from the cephalic or saphenous vein using an IV catheter and placed in heparinised tubes. […] The pre-dose and 24 h post-dose blood chemistry parameters were determined by the Small Animal Hospital, Faculty of Veterinary Science, Chulalongkorn University for all dogs, in order to monitor the health status of the dogs. […] All biological samples were kept at - 80 °C until required for analysis. Where the concentration of the samples exceeded the linear calibration curve, blank matrices were used to dilute the sample before protein precipitation. Methanol was used to extract the major triterpenoids from the biological samples for LCMS analysis. In brief, 50 μL of the biological sample was added to 200 μL methanol containing glycyrrhizin and glycyrrhetinic acid as internal standards. The mixture was then centrifuged at 12,000g for 10 min at 4 °C to collect the supernatant, and 10 μL of the supernatant was injected into the LCMS system to measure the concentration of the targeted analytes. […] A Synergi Fusion-RP C18 column (Phenomenex Inc.) was selected as the stationary phase and maintained at 40 °C in the column oven. […] The lower limit of quantification (LLOQ) of each of the compounds in this study ranged from 1.00 to 10.00 μg/L, according to the compound. After oral administration, pharmacokinetic parameters were determined by PK solution software version 2.0 (Submit Research Services, USA.) using non-compartmental analysis. The maximum plasma concentration (Cmax) and time to reach maximum plasma concentration (Tmax) were calculated directly from the concentration-time curves. The area under the curve from time 0-24 h (AUC0-24) was determined by the trapezoidal method and extrapolated to time infinity by the equation AUC0-inf = AUC0-24 + (Clast/kel), where Clast is the last measurable plasma concentration and kel is the elimination rate constant. The rate of […] was equal to - 2.303 × slope. The mean residence time (MRT) was calculated as AUMC0-inf/AUC0-inf, where AUMC0-inf is the area under the first moment curve. The volume of distribution (Vd) was equivalent to dose/C0, where C0 is the concentration of drug measured in plasma at time zero. The total clearance (CL) was equal to dose/AUC0-inf, and the elimination half-life was determined by 0.693/kel. […] The difference in blood chemistry parameters pre-dose and post-dose was compared using Student's t test. SPSS version 22.0 (IBM Corp.) was used to determine statistically significant differences between the experimental groups. […]

[2] = piperine in combination, self-emulsifying drug delivery systems; cited from earlier work
[3] = in combination with 100 mg/kg of curcumin; cited from earlier work
[4] = set-up: method as in PMID 19934593; conditions: pre-treatment with curcumin 60 mg/kg; cited from earlier work

Compound: C[C@H]1[C@H](C)CC[C@]2(C(=O)O)CC[C@]3(C)C(=CC[C@@H]4[C@@]5(C)C[C@@H](O)[C@H](O)[C@@](C)(CO)[C@@H]5CC[C@]43C)[C@H]12 [Asiatic acid, asiatic acid]
- Increase of systemic exposure (Cmax and AUC) by Centell-S + piperine compared to Centell-S alone ([1]; male, beagle): 1.5 to 3.0 fold
- Accumulation ratio ([1]; male, beagle, 7 days): 1.05–1.44
- Tmax ([1]; male, beagle, po, Time to reach maximum plasma concentration): 2 to 4 h
- Tmax ([1]; male, beagle, po, Tmax): 2 h

Compound: C=C(C)[C@@H]1CCC(C)=C[C@H]1c1c(O)cc(CCCCC)cc1O [cannabidiol]
- Improvement of oral bioavailability compared to the control group [2]: approximately 2.5 fold

Compound: CC(=O)O[C@@]12CO[C@@H]1C[C@H](O)[C@@]1(C)C(=O)[C@H](O)C3=C(C)[C@@H](OC(=O)[C@H](O)[C@@H](NC(=O)OC(C)(C)C)c4ccccc4)C[C@@](O)([C@@H](OC(=O)c4ccccc4)[C@H]21)C3(C)C [docetaxel]
- Increase of bioavailability compared to the control group [3]: approximately eight-fold

Compound: CCn1cc(C(=O)O)c(=O)c2cc(F)c(N3CCNCC3)cc21 [norfloxacin]
- Increase of AUC compared with the control group [4]: approximately two-fold

Compound: madecassoside
- Increase of systemic exposure (Cmax and AUC) by Centell-S + piperine compared to Centell-S alone [1]: 1.5 to 3.0 fold
- Time to reach maximum plasma concentration [1]: 2 to 4 h
- Time to reach maximum plasma concentration ([1]; po): 1 to 2 h
